Results: patent US11685761B2, “Cyclic di-nucleotide compounds as sting agonists” (Merck Sharp & Dohme Corp., priority 2017, dated 2023)

Columns and labels:
full-length HAQ STING = biological target: T1, full-length HAQ STING (Homo sapiens, UniProt Q86WV6, G230A/H232R/R293Q/R71H); experiment: 3H-cGAMP filtration binding assay (HAQ STING); settings: competition with tritiated cGAMP ligand; T. ni cell membranes overexpressing full-length HAQ STING
T1 construct: made in house; host or cells: Trichoplusia ni (Hi-Five) insect cells, baculovirus generated in Sf21; crude membranes
Excerpt: The ability of compounds to bind STING is quantified by the ability to compete with tritiated cGAMP ligand for human STING receptor membrane using a radioactive filter-binding assay. The binding assay employs STING receptor obtained from Hi-Five cell membranes overexpressing full-length HAQ STING prepared in-house and tritiated cGAMP ligand also purified in-house.
(§1) The ability of compounds to bind STING is quantified by their ability to compete with tritiated cGAMP ligand for human STING receptor membrane using a radioactive filter-binding assay. The binding assay employs STING receptor obtained from Trichoplusia ni cell membranes (T. ni; Expression Systems, cat #94-002F, www.expressionsystems.com) overexpressing full-length HAQ STING and tritiated cGAMP ligand.
The basic HAQ STING filtration assay protocol is as follows:
The compounds were serially titrated by the Hamilton STARPlus CORE in a 96-well plate (Greiner, #651201) using a 1:3 ten-point dose response format. […] 148 uL of prepared membrane was then manually added to each well of a 96-well deep-well polypropylene plate (Fisher Scientific, #12-566-121). Following membrane addition, 2 uL of either titrated test compound, DMSO control (Sigma #276855), or cold cGAMP control was added to the appropriate wells using a BIOMEK FX. Compound and membrane then preincubated for 60 min at RT to allow compound binding to equilibrate. Following equilibration, 8 nM of [^3H] c-GAMP ligand was prepared by diluting into assay buffer, and 50 uL of this working stock was then manually added to each well of the assay plate. Plates were then incubated at RT for 60 min, and the contents of each assay plate were then filtered through a 96-well GF/B filter plate (PerkinElmer, #6005250) using a TOMTEC MACH III Cell Harvester equipped with 20 mM HEPES buffer (Fisher Scientific, #BP299500). The filter plates were then dried at 55° C. for 30 min using a pressurized oven before 30 uL of ULTIMA GOLD F scintillate was added to each well. Tritium levels for each reaction well were then measured using a PerkinElmer TopCount plate reader.
(§2) After normalization to controls, the percent activity for each compound concentration was calculated by measuring the amount of remaining radioactivity. The plot of percent activity versus the log of compound concentration was fit with a 4-parameter dose response equation to calculate EC50 values.

full-length WT STING = biological target: T2, full-length WT STING (Homo sapiens, UniProt Q86WV6, H232R); experiment: 3H-cGAMP filtration binding assay (WT STING); settings: competition with tritiated cGAMP ligand; T. ni cell membranes overexpressing full-length WT STING
T2 construct: made in house; host or cells: Trichoplusia ni insect cells, baculovirus generated in Sf21; crude membranes
Description: as §1, with “WT” for “HAQ”
The basic WT STING filtration assay protocol is as follows:
16 nM of [^3H] c-GAMP ligand was prepared by diluting into assay buffer, and 50 uL of this working stock was manually added to each well of the assay plate. After ligand addition, 2 uL of either titrated test compound, DMSO control (Sigma #276855), or cold cGAMP control was added to the appropriate wells using a BIOMEK FX. The serially titrated compound was prepared on a Hamilton STARPlus CORE in a 96-well plate (Greiner, #651201) using a 1:3 ten-point dose response format. Following compound addition, a 2.2 ug/ml working concentration of STING membrane (SEQ. ID. No. 3) was prepared by diluting concentrated membrane into assay buffer (1×PBS; Invitrogen #SH30028.02) and douncing 7× using a manual tissue homogenizer (Wheaton, #357546). 148 uL of this prepared membrane was then manually added to each well of a 96-well deep-well polypropylene plate (Fisher Scientific, #12-566-121). Compound, ligand, and membrane then incubated for 60 min at RT before the contents of each assay plate were filtered through a 96-well GF/B filter plate (PerkinElmer, #6005250) using a TOMTEC MACH III Cell Harvester equipped with 20 mM HEPES buffer (Fisher Scientific, #BP299500). The filter plates were then dried at 55° C. for 30 min using a pressurized VWR oven before 30 uL of ULTIMA GOLD F scintillate was added to each well. Tritium levels for each reaction well were then measured using a PerkinElmer TopCount plate reader.
as §2

[1] = system: IFN-β secretion from THP1 cells; experiment: IFN-β secretion in THP1 cell culture (5 h); assay type: cell-based, human; settings: THP1 cells, 5 h incubation, compound at 30 μM, 30 uM cGAMP = 100%; for activation at 30 µM: Homo sapiens, THP-1, 5 h, read-out: % Effect at 30 μM relative to 2′3′-cGAMP
Description: The ability of compounds to stimulate the secretion of interferon-beta from THP1 cells was measured using a human IFN-β AlphaLISA kit (Perkin Elmer, Cat. No. AL265F). The basic protocol is as follows:
The cell viability and count was ascertained using a Beckman Coulter V-Cell XR cell counter. The cell suspension was centrifuged at 200×g for 5 min at RT. Cells were resuspended to a density of 0.8×10^6/mL in 37° C. assay medium. Subsequent liquid transfers were performed using either a Matrix electronic multichannel pipette or an Agilent Bravo Automated Liquid Handling Platform.
The assay was started by dispensing 40 μL of the previously prepared cell suspension into the wells of the plate containing compounds. After 5 h incubation at 37° C., 5% CO2 in a humidified atmosphere, the plate of cells and compounds was centrifuged at 200×g for 5 min at RT. […] To these supernatant-containing wells was added 10 μL of 5× Anti-Analyte Acceptor beads (50 μg/mL of AlphaLISA HiBlock Buffer) and incubated for 30 min at RT while shaking on an orbital plate shaker. To each well was added 10 μL of 5× Biotinylated Antibody Anti-analyte (5 nM in AlphaLISA HiBlock Buffer) and incubated on an orbital plate shaker for 60 min at RT or overnight at 4° C. To each well was added 25 μL of 2× SA-Donor beads (80 μg/mL in AlphaLISA HiBlock Buffer) and incubated for 30-45 min at RT in the dark while shaking on an orbital plate shaker. The plate was then read on a Perkin Elmer Envision (λex680 nm, λem=570 nm). The percent effect of the AlphaLISA signal at each compound concentration was calculated based on 30 uM cGAMP positive controls and 0.3% DMSO negative controls. The plot of percent effect versus the log of compound concentration was fit with a 4-parameter concentration response equation to calculate EC50 values.
Compounds of the disclosure were evaluated for IFN-β secretion in THP1 cell culture as described above.

T1 sequence (Q86WV6 with tags, fused parts or gaps R71H/G230A/H232R/R293Q): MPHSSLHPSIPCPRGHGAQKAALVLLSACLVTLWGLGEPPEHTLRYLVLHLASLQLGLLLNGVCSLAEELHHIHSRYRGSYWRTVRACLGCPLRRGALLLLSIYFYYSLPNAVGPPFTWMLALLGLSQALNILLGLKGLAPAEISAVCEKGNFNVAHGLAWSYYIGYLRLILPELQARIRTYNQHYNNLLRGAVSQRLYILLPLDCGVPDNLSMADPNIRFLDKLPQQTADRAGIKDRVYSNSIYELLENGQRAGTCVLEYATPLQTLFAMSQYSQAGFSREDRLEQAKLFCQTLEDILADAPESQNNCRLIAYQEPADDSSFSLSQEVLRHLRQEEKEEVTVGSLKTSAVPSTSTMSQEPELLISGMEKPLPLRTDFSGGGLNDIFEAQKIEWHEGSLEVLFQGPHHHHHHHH
T2 sequence (Q86WV6 with tags, fused parts or gaps H232R): as the sequence (Q86WV6 with tags, fused parts or gaps R71H/G230A/H232R/R293Q) above, with H71R, A230G, Q293R counted along it

With `Nc1ncnc2c1ncn2[C@@H]1O[C@@H]2CO[P@@](=O)(S)O[C@@H]3[C@H](O)[C@@H](CO[P@@](=O)(S)O[C@H]2[C@@H]1F)O[C@H]3n1ccc(=O)c2nccn21` [Example 13, 5-[(2R,5R,7R,8R,10R,12aR,14R,15S,15aR, 16R)-14-(6-amino-9H-purin-9-yl)-15-fluoro-16-hydroxy-2,10-dioxido-2,10-disulfanyloctahydro-12H-5,8-methanofuro[3,2-l][1,3,6,9,11,2,10]pentaoxadiphosphacyclotetradecin-7-yl]imidazo [1,2-b]pyridazin-8(5H)-one] the EC50 (full-length HAQ STING) was 238 nM, the EC50 (full-length WT STING) was 1960 nM and the activation at 30 µM [1] was 334%.
For `Nc1ncnc2c1ncn2[C@@H]1O[C@@H]2COP(=O)(S)O[C@@H]3[C@H](O)[C@@H](COP(=O)(S)O[C@H]2[C@@H]1F)O[C@H]3n1cnc2c(=O)n3cc[nH]c3nc21` (single isomer, unassigned) [Example 16], the EC50 (full-length WT STING) was 90 nM and the “% Effect at 30 μM relative to 2′3′-cGAMP” value [1] was 281%.
Compound `Nc1ncnc2c1ncn2[C@@H]1O[C@@H]2COP(=O)(S)O[C@@H]3[C@H](O)[C@@H](COP(=O)(S)O[C@H]2[C@@H]1F)O[C@H]3n1cnc2c(=O)n3c(nc21)NC(=O)C3` (stereo partly drawn) [Example 14, 3-[(5R,7R,8R,12aR,14R,15S,15aR,16R)-14-(6-amino-9H-purin-9-yl)-15-fluoro-16-hydroxy-2,10-dioxido-2,10-disulfanyloctahydro-12H-5,8-methanofuro[3,2-l][l,3,6,9,11,2,10]pentaoxadiphosphacyclotetradecin-7-yl]-3H-imidazo[1,2-a]purine-6,9(5H,7H)-dione] has an EC50 (full-length WT STING) of 433 nM and an activation at 30 µM [1] of 12%.
`Nc1nc2c(ncn2[C@@H]2O[C@@H]3COP(=O)(S)O[C@H]4[C@H](F)[C@H](n5ccc6c(=O)[nH]cnc65)O[C@@H]4COP(=O)(S)O[C@@H]2[C@@H]3F)c(=O)[nH]1` (single isomer, unassigned) [Example 40] was tested, and the EC50 (full-length HAQ STING) was 5 nM, the EC50 (full-length WT STING) was 2830 nM and the “% Effect at 30 μM relative to 2′3′-cGAMP” value [1] was 150%.
Work on `Nc1nc2c(ncn2[C@@H]2O[C@@H]3CO[P@](=O)(S)O[C@H]4[C@H](F)[C@H](n5ccc6c(=O)[nH]cnc65)O[C@@H]4CO[P@@](=O)(S)O[C@@H]2C3)c(=O)[nH]1` [Example 41, 2-amino-9-[(2R,5S,7R,8R,10R,12aR,14R,15S,15aR)-15-fluoro-2,10-dioxido-14-(4-oxo-3,4-dihydro-7H-pyrrolo[2,3-d]pyrimidin-7-yl)-2,10-disulfanyl-octahydro-12H-5,8-methanofuro[3,2-l] [1,3,6,9,11,2,10]pentaoxadiphosphacyclotetradecin-7-yl]-l,9-dihydro-6H-purin-6-one] yielded an EC50 (full-length HAQ STING) of 2 nM, an EC50 (full-length WT STING) of 124 nM and an activation at 30 µM [1] of 156%.
`Nc1ncnc2c1ncn2[C@@H]1O[C@@H]2CO[P@@](=O)(S)O[C@@H]3[C@H](O)[C@@H](CO[P@](=O)(S)O[C@H]2[C@H]1O)O[C@H]3n1ccc(=O)n2ccnc12` [Example 2, 8-[(2S,5R,7R,8R,10R,12aR,14R,15R,15aS,16R)-14-(6-amino-9H-purin-9-yl)-15,16-dihydroxy-2,10-dioxido-2,10-disulfanyloctahydro-12H-5,8-methanofuro[3,2-l][1,3,6,9,11,2,10]pentaoxadiphospha-cyclotetradecin-7-yl]imidazo[1,2-a]pyrimidin-5(8H)-one] gave an EC50 (full-length HAQ STING) of 2 nM, an EC50 (full-length WT STING) of 32 nM and an activation at 30 µM [1] of 44%.
For `Nc1nc2c(nnn2[C@@H]2O[C@@H]3COP(=O)(S)O[C@H]4C[C@H](n5ccc6c(=O)[nH]cnc65)O[C@@H]4COP(=O)(S)O[C@@H]2C3)c(=O)[nH]1` (single isomer, unassigned) [Example 43], the EC50 (full-length HAQ STING) was 37 nM, the EC50 (full-length WT STING) was 148 nM and the “% Effect at 30 μM relative to 2′3′-cGAMP” value [1] was 120%.
For `Nc1ncnc2c1ncn2[C@@H]1O[C@@H]2COP(=O)(S)O[C@@H]3[C@H](O)[C@@H](COP(=O)(S)O[C@H]2[C@@H]1F)O[C@H]3n1cnc2c(=O)n3cc[nH]c3nc21` (single isomer, unassigned) [Example 15], the EC50 (full-length WT STING) was 43 nM and the “% Effect at 30 μM relative to 2′3′-cGAMP” value [1] was 318%.
